Measurements from US20100168102A9, “Amide Derivatives as Kinase Inhibitors” (Devgen NV, priority 2005, published 2010).

Key:
PKC epsilon = target: T1, PKC epsilon (Homo sapiens, UniProt Q02156); experiment: Biochemical assay for PKC epsilon (fluorescence polarization, Protein Kinase C Assay Kit, Red); settings: read-out: IC50 μM PKCε
T1 construct: purchased Invitrogen P2282
T1 sequence (Q02156 1-737): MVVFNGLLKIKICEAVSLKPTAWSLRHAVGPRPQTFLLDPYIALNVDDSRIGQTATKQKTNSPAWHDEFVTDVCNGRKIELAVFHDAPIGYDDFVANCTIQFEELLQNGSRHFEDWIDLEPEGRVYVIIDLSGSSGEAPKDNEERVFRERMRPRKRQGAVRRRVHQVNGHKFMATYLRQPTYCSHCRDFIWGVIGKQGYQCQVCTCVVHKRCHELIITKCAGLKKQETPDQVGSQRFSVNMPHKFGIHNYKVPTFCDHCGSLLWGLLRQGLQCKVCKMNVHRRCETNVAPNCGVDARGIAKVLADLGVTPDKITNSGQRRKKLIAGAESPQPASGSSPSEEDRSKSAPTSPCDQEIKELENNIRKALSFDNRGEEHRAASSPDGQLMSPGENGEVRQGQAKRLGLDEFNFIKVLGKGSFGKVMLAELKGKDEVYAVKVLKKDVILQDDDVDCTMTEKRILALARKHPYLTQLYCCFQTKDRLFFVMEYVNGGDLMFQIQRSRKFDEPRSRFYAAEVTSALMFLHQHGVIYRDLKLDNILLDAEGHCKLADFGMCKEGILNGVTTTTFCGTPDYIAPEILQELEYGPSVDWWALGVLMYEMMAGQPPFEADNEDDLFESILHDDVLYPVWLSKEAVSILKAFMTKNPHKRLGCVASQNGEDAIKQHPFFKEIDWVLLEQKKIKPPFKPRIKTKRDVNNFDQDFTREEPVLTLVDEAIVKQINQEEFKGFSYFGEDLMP
How it was run: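 Read-out was fluorescence-polarization competition between phosphorylated substrate and a rhodamine PKC tracer for an anti-phosphoserine antibody, added with EDTA stop after an 80 min room-temperature kinase reaction with ATP and protein substrate (Mg2+/Ca2+ buffer). Enzyme (10 ng/ml final) was preincubated with compound for 30 min.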

human ROCKα/ROCKII mix = target: T2, human ROCKα/ROCKII mix (Homo sapiens, UniProt O75116); experiment: Biochemical assay for ROCK (fluorescence polarization, ROCK IMAP Kit)
T2 construct: purchased Upstate Biotechnology 14-451
T2 sequence (O75116 11-552 limits assumed): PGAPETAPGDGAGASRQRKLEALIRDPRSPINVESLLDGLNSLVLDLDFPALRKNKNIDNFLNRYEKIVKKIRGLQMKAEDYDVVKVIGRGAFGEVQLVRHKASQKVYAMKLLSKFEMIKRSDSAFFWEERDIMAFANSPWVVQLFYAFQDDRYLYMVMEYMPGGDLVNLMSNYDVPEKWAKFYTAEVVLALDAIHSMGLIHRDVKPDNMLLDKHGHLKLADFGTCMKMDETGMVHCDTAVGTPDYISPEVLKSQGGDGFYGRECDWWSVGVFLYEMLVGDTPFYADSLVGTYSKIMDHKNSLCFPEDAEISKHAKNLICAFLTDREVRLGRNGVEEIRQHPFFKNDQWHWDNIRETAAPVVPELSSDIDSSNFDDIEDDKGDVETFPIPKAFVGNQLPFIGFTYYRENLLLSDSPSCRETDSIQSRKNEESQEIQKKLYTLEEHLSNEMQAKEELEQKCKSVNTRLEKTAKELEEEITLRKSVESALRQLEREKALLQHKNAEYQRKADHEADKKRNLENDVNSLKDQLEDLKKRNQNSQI

IC50 (PKC epsilon) [µM] | IC50 (human ROCKα/ROCKII mix) [µM] | SMILES
0.5 to 5 | 0.5 to 5 | CC(C)(C(=O)N1CCCC1C(N)c1ccc(C(=O)Nc2ccncc2)cc1)c1ccc(Cl)cc1 (stereo not drawn) [Compound 563, 4-(Amino-{1-[2-(4-chloro-phenyl)-2-methyl-propionyl]-pyrrolidin-2-yl}-methyl)-N-pyridin-4-yl-benzamide]
0.5 to 5 | 0.5 to 5 | NC(c1ccc(C(=O)Nc2ccncc2)cc1)C1CCCN1C(=O)C1(c2ccc(Cl)cc2)CC1 (stereo not drawn) [Compound 564, 4-(Amino-{1-[1-(4-chloro-phenyl)-cyclopropanecarbonyl]-pyrrolidin-2-yl}-methyl)-N-pyridin-4-yl-benzamide]
0.5 to 5 | 0.5 to 5 | NC(c1ccc(C(=O)Nc2ccncc2)cc1)C1CCCN1C(=O)C1(c2ccc(Cl)cc2)CCC1 (stereo not drawn) [Compound 565, 4-(Amino-{1-[1-(4-chloro-phenyl)-cyclobutanecarbonyl]-pyrrolidin-2-yl}-methyl)-N-pyridin-4-yl-benzamide]
0.5 to 5 | 0.5 to 5 | NC(c1ccc(C(=O)Nc2ccncc2)cc1)C1CCCN1C(=O)C1(c2ccc(Cl)cc2)CCCC1 (stereo not drawn) [Compound 566, 4-(Amino-{1-[1-(4-chloro-phenyl)-cyclopentanecarbonyl]-pyrrolidin-2-yl}-methyl)-N-pyridin-4-yl-benzamide]
5 to 50 | 0.05 to 0.5 | NC(c1ccc(C(=O)Nc2ccncc2)cc1)C1CCCN1C(=O)Cc1ccccc1F (stereo not drawn) [Compound 567, 4-(Amino-{1-[2-(2-fluoro-phenyl)-acetyl]-pyrrolidin-2-yl}-methyl)-N-pyridin-4-yl-benzamide]
5 to 50 | 0.5 to 5 | NC(c1ccc(C(=O)Nc2ccncc2)cc1)C1CCCN1C(=O)Cc1cccc(F)c1 (stereo not drawn) [Compound 569]
0.5 to 5 | 0.5 to 5 | NC(c1ccc(C(=O)Nc2ccncc2)cc1)C1CCCN1C(=O)C1(c2cccc(F)c2)CCCC1 (stereo not drawn) [Compound 570, 4-(Amino-{1-[1-(3-fluoro-phenyl)-cyclopentanecarbonyl]-pyrrolidin-2-yl}-methyl)-N-pyridin-4-yl-benzamide]
5 to 50 | 0.5 to 5 | COc1ccc(CC(=O)N2CCCC2C(N)c2ccc(C(=O)Nc3ccncc3)cc2)cc1F (stereo not drawn) [Compound 571, 4-(Amino-{1-[2-(3-fluoro-4-methoxy-phenyl)-acetyl]-pyrrolidin-2-yl}-methyl)-N-pyridin-4-yl-benzamide]
5 to 50 | 0.5 to 5 | NC(c1ccc(C(=O)Nc2ccncc2)cc1)C1CCCN1C(=O)Cc1ccc(F)cc1 (stereo not drawn) [Compound 572, 4-(Amino-{1-[2-(4-fluoro-phenyl)-acetyl]-pyrrolidin-2-yl}-methyl)-N-pyridin-4-yl-benzamide]
0.5 to 5 | 0.5 to 5 | CC(C)(C(=O)N1CCCC1C(N)c1ccc(C(=O)Nc2ccncc2)cc1)c1ccc(F)cc1 (stereo not drawn) [Compound 573, 4-(Amino-{1-[2-(4-fluoro-phenyl)-2-methyl-propionyl]-pyrrolidin-2-yl}-methyl)-N-pyridin-4-yl-benzamide]
0.5 to 5 | 0.5 to 5 | NC(c1ccc(C(=O)Nc2ccncc2)cc1)C1CCCN1C(=O)C1(c2ccc(F)cc2)CC1 (stereo not drawn) [Compound 574, 4-(Amino-{1-[1-(4-fluoro-phenyl)-cyclopropanecarbonyl]-pyrrolidin-2-yl}-methyl)-N-pyridin-4-yl-benzamide]
0.5 to 5 | 0.5 to 5 | NC(c1ccc(C(=O)Nc2ccncc2)cc1)C1CCCN1C(=O)C1(c2ccc(F)cc2)CCC1 (stereo not drawn) [Compound 575, 4-(Amino-{1-[1-(4-fluoro-phenyl)-cyclobutanecarbonyl]-pyrrolidin-2-yl}-methyl)-N-pyridin-4-yl-benzamide]
0.5 to 5 | 0.5 to 5 | NC(c1ccc(C(=O)Nc2ccncc2)cc1)C1CCCN1C(=O)C1(c2ccc(F)cc2)CCCC1 (stereo not drawn) [Compound 576, 4-(Amino-{1-[1-(4-fluoro-phenyl)-cyclopentanecarbonyl]-pyrrolidin-2-yl}-methyl)-N-pyridin-4-yl-benzamide]
0.5 to 5 | 0.5 to 5 | NC(c1ccc(C(=O)Nc2ccncc2)cc1)C1CCCN1C(=O)Cc1cccc(F)c1F (stereo not drawn) [Compound 578, 4-(Amino-{1-[2-(2,3-difluoro-phenyl)-acetyl]-pyrrolidin-2-yl}-methyl)-N-pyridin-4-yl-benzamide]
5 to 50 | 0.5 to 5 | NC(c1ccc(C(=O)Nc2ccncc2)cc1)C1CCCN1C(=O)Cc1cc(F)ccc1F (stereo not drawn) [Compound 579, 4-(Amino-{1-[2-(2,5-difluoro-phenyl)-acetyl]-pyrrolidin-2-yl}-methyl)-N-pyridin-4-yl-benzamide]
0.5 to 5 | 0.05 to 0.5 | NC(c1ccc(C(=O)Nc2ccncc2)cc1)C1CCCN1C(=O)Cc1ccc(F)cc1F (stereo not drawn) [Compound 580, 4-(Amino-{1-[2-(2,4-difluoro-phenyl)-acetyl]-pyrrolidin-2-yl}-methyl)-N-pyridin-4-yl-benzamide]
0.5 to 5 | 0.5 to 5 | NC(c1ccc(C(=O)Nc2ccncc2)cc1)C1CCCN1C(=O)C1(c2ccc(F)cc2F)CC1 (stereo not drawn) [Compound 582, 4-(Amino-{1-[1-(2,4-difluoro-phenyl)-cyclopropanecarbonyl]-pyrrolidin-2-yl}-methyl)-N-pyridin-4-yl-benzamide]
5 to 50 | 0.5 to 5 | NC(c1ccc(C(=O)Nc2ccncc2)cc1)C1CCCN1C(=O)Cc1cc(F)cc(F)c1 (stereo not drawn) [Compound 583, 4-(Amino-{1-[2-(3,5-difluoro-phenyl)-acetyl]-pyrrolidin-2-yl}-methyl)-N-pyridin-4-yl-benzamide]
5 to 50 | 0.5 to 5 | NC(c1ccc(C(=O)Nc2ccncc2)cc1)C1CCCN1C(=O)Cc1c(F)cccc1F (stereo not drawn) [Compound 584, 4-(Amino-{1-[2-(2,6-difluoro-phenyl)-acetyl]-pyrrolidin-2-yl}-methyl)-N-pyridin-4-yl-benzamide]
0.5 to 5 | 0.5 to 5 | NC(c1ccc(C(=O)Nc2ccncc2)cc1)C1CCCN1C(=O)C1(c2ccc(F)c(F)c2)CC1 (stereo not drawn) [Compound 587, 4-(Amino-{1-[1-(3,4-difluoro-phenyl)-cyclopropanecarbonyl]-pyrrolidin-2-yl}-methyl)-N-pyridin-4-yl-benzamide]
0.5 to 5 | 0.5 to 5 | NC(c1ccc(C(=O)Nc2ccncc2)cc1)C1CCCN1C(=O)C1(c2ccc(F)c(F)c2)CCC1 (stereo not drawn) [Compound 588, 4-(Amino-{1-[1-(3,4-difluoro-phenyl)-cyclobutanecarbonyl]-pyrrolidin-2-yl}-methyl)-N-pyridin-4-yl-benzamide]
0.5 to 5 | 0.5 to 5 | NC(c1ccc(C(=O)Nc2ccncc2)cc1)C1CCCN1C(=O)C1(c2ccc(F)c(F)c2)CCCC1 (stereo not drawn) [Compound 589, 4-(Amino-{1-[1-(3,4-difluoro-phenyl)-cyclopentanecarbonyl]-pyrrolidin-2-yl}-methyl)-N-pyridin-4-yl-benzamide]
5 to 50 | 0.5 to 5 | NC(c1ccc(C(=O)Nc2ccncc2)cc1)C1CCCN1C(=O)Cc1c(Cl)cccc1Cl (stereo not drawn) [Compound 590, 4-(Amino-{1-[2-(2,6-dichloro-phenyl)-acetyl]-pyrrolidin-2-yl}-methyl)-N-pyridin-4-yl-benzamide]
5 to 50 | 0.5 to 5 | NC(c1ccc(C(=O)Nc2ccncc2)cc1)C1CCCN1C(=O)Cc1ccc(Cl)cc1Cl (stereo not drawn) [Compound 591, 4-(Amino-{1-[2-(2,4-dichloro-phenyl)-acetyl]-pyrrolidin-2-yl}-methyl)-N-pyridin-4-yl-benzamide]
